Laboratory results published in patent publication US7026344B2, “Treating sickle cell disease” (priority 2000, dated 2006).

System: human γ (Huγ) mRNA in K562 cells
Assay: γ globin mRNA induction in K562 cells by RNase protection assay
Type: cell-based
Details: K562
Procedure: Cell Culture. K562 cells were grown in suspension cultures in RPMI-1640 containing 10% fetal bovine serum, penicillin (100 U/ml) and streptomycin (0.1 mg/ml in a humidified incubator at 37° C. in a 5%CO2/95% air atmosphere. The following experimental conditions were analyzed in triplicate with 2×10^6 cells per well: an untreated control, ZL dissolved in 0.1% dimethylsulfoximide (DMSO) at final concentrations of […], HU at […] and two positive controls hemin (50 mM) and sodium butyrate (NB) 2 mM. The K562 cells were induced for 72 hours then RNA isolated for further analysis. Cell viability was completed by 2% trypan blue exclusion at timnes 0 and 72 hours.
RNA Isolation. RNA was isolated using RNA Stat-60 (TEL-TEST “B”, Inc., Friendswood, Tex.) according to the manufacturer's instructions. In brief, cell pellets will be suspended in RNA Stat-60 (1 ml) and chloroform (200 μl), and the RNA extracted and precipitated with isopropanol.
RNase Protection Analysis. MRNA levels will be quantitated by RNase protection assay (RPA) with probes designed to yield protected fragments for human γ (Huγ)and the internal control glyceraldehydes-3-phosphate dehydrogenase (GAPD). Huγ mRNA levels were normalized to that of GAPD and compared to the untreated K562 cells. (Zar: Statistical Analysis, Englewood)
Several pharmacological hemoglobin F inducers such as HU, 5-azacytidine, erythropoietin, didox, and butyrate alter γ gene expression in culture. The induction of γ gene activity in culture is a good indicator of potential clinical usefulness. Therefore the capability of ZL to induce γ gene activity at the mRNA level was tested. K562 cells were cultured in ZL from 0 to 100 μM or HU (50μ to 100 μM) for 48 hours. Total cellular RNA was analyzed by RPA for γ mRNA levels. An increase in γ mRNA for ZL at 20 μM with a maximal response at 75 μM (FIG. 4A) was observed. The level of γ gene mRNA synthesis was quantitated relative to the internal control, CAPD. […] K562 cell viability was decreased 10% when measured using trypan blue exclusion at 75 μM and 100 μM concentrations for both ZL and HU. The level of γ gene induction was 3.9 fold and 10-fold for the positive controls NB and hemin, respectively.

Question: How did the “level of γ gene induction” value (positive control NB 2 mM) turn out when `CCCC(=O)[O-].[Na+]` [NB, sodium butyrate] was run?
Answer: 3.9 fold

Question: How did the “level of γ gene induction” value (positive control hemin (50 µM)) turn out when hemin was run?
Answer: 10 fold
